Source: patent US11058677B2, “LFA-1 inhibitor formulations” (Novartis AG, priority 2012, dated 2021)

Experiments:
[1] = Effect of concentration (and EDTA) on formulation stability; assay type: physicochemical; conditions: solutions with and without 0.1% EDTA
Description: Three different concentrations of the compound of Formula 1, 1.0%, 3.0% and 5.0% were studied. The samples were monitored at a temperature of 40° C. The pH of the three solutions was maintained in the range of 7.0-7.5. The total % degradation of the three solutions was monitored with respect to time. The results of this experiment are graphically represented in FIG. 4.
Solutions both with and without 0.1% EDTA were monitored.

[2] = Effect of sparging with nitrogen on stability; assay type: physicochemical; conditions: about 40° C., about four months
Description: Four separate solutions of the compound of Formula 1 were prepared. The pH of the first solution was buffered to 6.0. The pH of the second solution was also buffered to 6.0 and the solution was additionally sparged with nitrogen. The pH of the third solution was buffered to 7.0. The pH of the fourth solution was also buffered to 7.0 and the solution was further sparged with nitrogen. All the four solutions were stored at a temperature of about 40° C. for a period of about four months. The percentage of total degradates was measured for each solution after about every four weeks. The results of this experiment are graphically represented in FIG. 8.

[3] = Effect of antioxidants on stability of 3% w/v solutions; assay type: physicochemical; conditions: pH 6.5 with 0.3% w/v thiosulfate salt (40, 50, 60° C.) vs pH 7.5 without antioxidant at 40° C., about nine weeks
Description: Four separate solutions containing 3% w/v of the compound of Formula 1 were prepared. The pH of the first solution was buffered to 6.5, 0.3% w/v thiosulfate salt was added and the solution was stored at 50° C. for about nine weeks. The pH of the second solution was adjusted to 6.5, 0.3% thiosulfate salt was added and the solution was stored at 40° C. for about nine weeks. The pH of the third solution was buffered to 6.5, 0.3% thiosulfate salt was added and the solution was allowed to stand at 60° C. for about nine […]. No antioxidant was added to the fourth solution which was buffered to a pH of 7.5 and allowed to stand at a temperature of 40° C. for about 9 weeks. The percentage of total degradates was measured for each solution after about every 2-4 weeks. The results of this experiment are graphically represented in FIG. 3.

[4] = Effect of pH on stability of nitrogen sparged solutions (four months); assay type: physicochemical; conditions: pH 6.0, 7.0, 7.5, about 40° C.
Description: Three solutions of the compound of Formula 1 were prepared. The pH of the first solution was buffered to 6.0, the pH of the second solution was also buffered to 7.0 and pH of the third solution was buffered to 7.5. All the three solutions were sparged with nitrogen were stored at a temperature of about 40° C. for a period of about four months. The percentage of total degradates was measured for each solution after about every four weeks. The results of this experiment are graphically represented in FIG. 9.

[5] = Effect of pH on stability of formulation with antioxidant (metabisulfite); assay type: physicochemical; conditions: metabisulfite salt, pH 6.0 and 7.0, about 40° C., about four months
Description: Two solutions of the compound of Formula 1 were prepared. The pH of the first solution was buffered to 6.0 and the pH of the second solution was also buffered to 7.0. A metabisulfite salt was added to both the solutions and were stored at a temperature of about 40° C. for a period of about four months. The percentage of total degradates was measured for each solution after about every four weeks. The results of this experiment are graphically represented in FIG. 10.

[6] = Degradation profile of 1.0% and 5.0% w/v solutions (degradation mechanism); assay type: physicochemical
Text: The results of these experiments are graphically represented in FIG. 7.

[7] = Effect of pH on stability, no antioxidant (one month); assay type: physicochemical; conditions: pH 6.0, 7.0, 7.5, 8.0, 8.5, no antioxidant, about 40° C.
Description: Five different solutions of the compound of Formula 1 were prepared. The first solution was buffered to a pH of 6.0, the second solution was buffered to pH 7.0, the third solution was buffered to pH 7.5, the fourth solution was buffered to pH 8.0, and the fifth solution was buffered a pH of 8.5. No antioxidant was added and all solutions were stored at a temperature of about 40° C. for a period of about one month after which the percentage of total degradates was measured for each solution. The results of this experiment are graphically represented in FIG. 12.

[8] = Individual degradates A and B by HPLC analysis on storage; assay type: physicochemical; conditions: 5.0% w/v solutions, 40° C. vs 60° C., about nine weeks
Description: Two solutions containing 5.0% w/v of the compound of Formula 1 were prepared. The first solution was stored at 40° C. for about 9 weeks and the second solution was stored at 60° C. for a period of about nine weeks. The percentage of each of the two major degradates of Formula 1 (degradate A and degradate B) was measured by HPLC analysis for each solution after about every 2-4 weeks. The results of this experiment are graphically represented in FIG. 5.

[9] = Stability of 5.0% solution (percentage of total degradates on storage); assay type: physicochemical; conditions: for individual degradate versus ICH qualification threshold: about 2 months
Description: Three separate 5.0% aqueous solutions of the compound of Formula 1 were prepared and allowed to stand at temperatures of about 5° C., 25° C., and 40° C. respectively for a period of about 15 months. The percentage of total degradates was measured for each solution after about every 4 weeks. The results of this experiment are graphically represented in FIG. 1.

Systemic clearance = conditions: in vivo
[10] = Stability of three different formulations (total degradates at 40° C.); assay type: physicochemical
Description: Three separate solutions of the compound of Formula 1 of same concentration were prepared. The first solution (pH=6.0) was stored at 40° C. without any further additives for about four months. The second solution (pH=6.0) was further treated with a metabisulfite salt and allowed to stand at 40° C. for about four months. The pH of the third solution was buffered to pH 7.5 and allowed to stand at 40° C. for about 4 months without any further additives. The percentage of total degradates was measured for each solution after about every 4 weeks. The results of this experiment are graphically represented in FIG. 2.

[11] = molecular target: LFA-1 interactions with ICAM-1 (Homo sapiens, UniProt P05107+P20701); assay: Inhibition of LFA-1 interactions with ICAM-1
LFA-1 interactions with ICAM-1, sequence (P20701 26-1170): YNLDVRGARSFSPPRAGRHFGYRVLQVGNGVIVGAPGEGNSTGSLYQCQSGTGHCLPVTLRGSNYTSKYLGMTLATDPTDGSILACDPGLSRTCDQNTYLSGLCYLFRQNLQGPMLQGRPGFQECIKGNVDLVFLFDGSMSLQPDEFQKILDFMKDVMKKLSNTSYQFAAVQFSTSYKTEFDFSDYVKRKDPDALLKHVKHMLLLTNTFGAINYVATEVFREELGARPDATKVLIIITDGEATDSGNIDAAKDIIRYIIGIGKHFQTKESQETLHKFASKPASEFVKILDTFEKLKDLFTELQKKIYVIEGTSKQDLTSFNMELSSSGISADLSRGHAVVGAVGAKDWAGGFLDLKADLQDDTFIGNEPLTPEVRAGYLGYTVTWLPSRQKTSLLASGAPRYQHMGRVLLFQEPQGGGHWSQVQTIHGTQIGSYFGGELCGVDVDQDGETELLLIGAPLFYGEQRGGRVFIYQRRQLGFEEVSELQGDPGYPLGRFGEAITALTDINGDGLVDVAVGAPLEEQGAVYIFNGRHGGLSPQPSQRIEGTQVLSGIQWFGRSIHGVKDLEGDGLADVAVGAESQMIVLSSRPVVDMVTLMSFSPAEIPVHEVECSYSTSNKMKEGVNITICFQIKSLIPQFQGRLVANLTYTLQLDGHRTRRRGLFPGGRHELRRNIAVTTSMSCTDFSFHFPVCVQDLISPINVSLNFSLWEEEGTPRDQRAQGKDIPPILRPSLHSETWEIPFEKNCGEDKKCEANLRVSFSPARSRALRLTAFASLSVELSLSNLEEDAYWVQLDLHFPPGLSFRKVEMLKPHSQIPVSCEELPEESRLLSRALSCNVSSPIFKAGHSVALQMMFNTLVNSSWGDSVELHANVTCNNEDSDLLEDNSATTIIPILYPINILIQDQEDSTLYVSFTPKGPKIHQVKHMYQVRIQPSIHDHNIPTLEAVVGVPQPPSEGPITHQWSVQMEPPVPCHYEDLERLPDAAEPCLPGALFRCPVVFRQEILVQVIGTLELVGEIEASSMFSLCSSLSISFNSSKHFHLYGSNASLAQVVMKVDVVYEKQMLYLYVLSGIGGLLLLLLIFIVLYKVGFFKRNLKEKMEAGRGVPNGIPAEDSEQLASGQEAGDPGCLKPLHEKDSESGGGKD
LFA-1 interactions with ICAM-1, sequence (P05107 23-769): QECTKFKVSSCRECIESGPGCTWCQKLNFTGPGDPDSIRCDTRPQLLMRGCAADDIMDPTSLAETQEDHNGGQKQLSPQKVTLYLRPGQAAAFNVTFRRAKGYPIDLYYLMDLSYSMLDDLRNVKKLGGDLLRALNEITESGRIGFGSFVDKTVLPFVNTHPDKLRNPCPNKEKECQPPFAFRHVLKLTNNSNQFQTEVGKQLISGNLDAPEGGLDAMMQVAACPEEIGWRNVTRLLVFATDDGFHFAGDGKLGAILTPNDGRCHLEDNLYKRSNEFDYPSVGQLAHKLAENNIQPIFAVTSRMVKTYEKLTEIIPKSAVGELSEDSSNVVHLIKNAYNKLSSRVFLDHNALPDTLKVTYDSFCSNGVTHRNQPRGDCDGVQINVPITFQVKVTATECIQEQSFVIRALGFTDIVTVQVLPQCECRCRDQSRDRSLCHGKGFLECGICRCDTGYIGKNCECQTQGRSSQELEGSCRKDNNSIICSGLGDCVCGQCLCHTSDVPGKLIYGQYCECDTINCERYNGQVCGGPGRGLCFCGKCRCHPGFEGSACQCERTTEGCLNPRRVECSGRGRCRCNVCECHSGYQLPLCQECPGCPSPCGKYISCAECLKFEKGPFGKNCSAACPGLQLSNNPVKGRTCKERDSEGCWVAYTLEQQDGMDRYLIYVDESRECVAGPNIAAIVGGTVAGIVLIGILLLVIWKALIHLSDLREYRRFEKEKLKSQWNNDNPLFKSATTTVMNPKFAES

[12] = Effect of various antioxidants on stability at pH 6.5; assay type: physicochemical; conditions: pH about 6.5, about 40° C., about one month, sodium thiosulfate (0.3% w/v) alone vs bisulfite, acetylcysteine, thioglycerol, Vitamin E TPGS, ascorbic acid
Description: Seven different solutions of Formula 1, buffered at a pH of about 6.5, were prepared. Sodium bisulfite (0.2% w/v) and sodium thiosulfate (0.3% w/v) were added to the first solution, sodium bisulfite (0.2% w/v) was added to the second solution, sodium thiosulfate (0.3% w/v) was added to the third solution, acetylcysteine (0.2% w/v) was added to the fourth solution, thioglycerol (0.2% w/v) was added to the fifth solution, Vitamin E TPGS ([…]) was added to the sixth solution, and ascorbic acid (0.3% w/v) was added to the seventh solution. All solutions were stored at a temperature of about 40° C. for a period of about one month after which the percentage of total degradates was measured for each solution. The results of this experiment are graphically represented in FIG. 11.

SMILES: CS(=O)(=O)c1cccc(C[C@H](NC(=O)c2c(Cl)cc3c(c2Cl)CCN(C(=O)c2ccc4ccoc4c2)C3)C(=O)O)c1 [compound of Formula 1]
- stability, effect of presence or absence of EDTA [1]: did significantly change the stability
- stability (total degradates), effect of nitrogen sparging ([2]; pH 6.0 and pH 7.0, sparged vs not sparged): better stability
- stability (total degradates), pH 7.0 vs pH 6.0 ([2]; with and without nitrogen sparging): improved stability
- stability (total degradates), effect of added antioxidant [3]: increased the stability
- stability (total degradates), effect of pH [4]: higher pH exhibited improved stability
- degradation and pH sensitivity of stability, effect of antioxidant [5]: significantly reduces both the degradation of Formula 1 and the sensitivity of the stability of Formula 1 to pH
- rate of degradation, 5.0% w/v vs 1.0% w/v solution ([6]; total percentage degradation about every four weeks for six months): greater than the rate of degradation of the 1.0 w/v solution
- final level of degradation, 5.0% w/v vs 1.0% w/v solution ([6]; when a limiting reactant such as oxygen is reduced, six months): appear to reach the same level of degradation
- stability (total degradates), effect of pH [7]: higher pH exhibited better stability
- % formation of degradates A and B, effect of storage temperature [8]: did not significantly affect
- individual degradant versus ICH qualification threshold ([9]; 5.0% aqueous solution stored at 5° C., about 6 months): no individual degradant above the ICH qualification threshold
- total degradation product ([9]; 5.0% aqueous solution stored at 5° C., after about 6 months): about 5%
- individual degradate versus ICH qualification threshold ([9]; 5.0% aqueous solution stored at 25° C.): no individual degradate above the ICH qualification threshold
- total degradation product ([9]; 5.0% aqueous solution stored at 25° C., in about 2 months): 5%
- individual degradate versus ICH qualification threshold ([9]; 5.0% aqueous solution stored at 40° C.): no individual degradate above the ICH qualification threshold
- total degradation product ([9]; 5.0% aqueous solution stored at 40° C., in about 2 months): 5%
- systemic clearance rate (Systemic clearance): rapid systemic clearance rate
- stability (total degradates), effect of added antioxidant ([10]; pH 6.0 with metabisulfite salt vs pH 6.0 without additives, about four months): increases the stability
- stability (total degradates), effect of increasing pH ([10]; pH 7.5 without antioxidant vs pH 6.0 without additives, about 4 months): increases the stability
- inhibition of LFA-1 interactions with ICAM-1 [11]: effective inhibitor
- stability (total degradates), comparison of antioxidants [12]: best overall stability
